From US20260274892A1, “MACROCYCLIC BROAD SPECTRUM ANTIBIOTICS” (RQx Pharmaceuticals, Inc., priority 2017, published 2026) come the findings set out here.

Assay [1] relates to Methicillin Resistant Staphylococcus aureus strain USA 200. The assay is described as follows: Minimum inhibitory concentration (MIC), CLSI broth micro-dilution, S. aureus. The assay is classed as cell-based. To be noted: Staphylococcus aureus, MRSA / USA200; Table 6; MRSA USA 200; cation adjusted Mueller Hinton Broth + 0.002% Tween-80; 35° C., 22 hours. The method, boiled down:
(§1)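 Colonies grown 20 h at 35° C on Trypticase Soy agar (MRSA) or Luria agar (E. coli) were suspended in cation-adjusted Mueller Hinton broth with 0.002% Tween-80. Suspensions were added at OD600 0.0005 to 10-point twofold compound dilutions, then incubated 22 h at 35° C.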

For assay [2], the system named is Escherichia coli ATCC 25922. Nature of the assay: Minimum inhibitory concentration (MIC), CLSI broth micro-dilution, E. coli. The assay is classed as cell-based. As to conditions: Escherichia coli, ATCC25922, 22 h, Table 6, cation adjusted Mueller Hinton Broth + 0.002% Tween-80, 35° C. The procedure, abridged: as §1

With `CCCCCc1ccc(-c2nc(C)c(C(=O)N[C@@H](CCN)C(=O)N(C)[C@@H]3C(=O)N[C@@H](C)C(=O)N[C@H](C(=O)NCC#N)Cc4ccc(O)c(c4)-c4cc3ccc4OCCN)c(C)n2)cc1` (racemic) [Compound 521, rac-(8S,11S,14S)-18-(2-aminoethoxy)-N-(cyanomethyl)-3-hydroxy-11-methyl-14-[methyl-[rac-(2S)-4-amino-2-[[4,6-dimethyl-2-(4-pentylphenyl)pyrimidine-5-carbonyl]amino]butanoyl]amino]-10,13-dioxo-9,12-diazatricyclo[13.3.1.12,6]icosa-1(18),2(20),3,5,15(19),16-hexaene-8-carboxamide], the figures for the MIC in assay [1] and in assay [2] were 0.047 µM and 0.2 µM, respectively.

For the compound `Cc1nc(-c2ccc(C(C)(C)C)cc2)ncc1C(=O)N[C@@H](CCN)C(=O)N(C)[C@@H]1C(=O)N[C@@H](C)C(=O)N[C@H](C(=O)NCC#N)Cc2ccc(O)c(c2)-c2cc1ccc2OCCN` (racemic) [Compound 523, rac-(8S,11S,14S)-18-(2-aminoethoxy)-N-(cyanomethyl)-3-hydroxy-11-methyl-14-[methyl-[rac-(2S)-4-amino-2-[[2-(4-tert-butylphenyl)-4-methyl-pyrimidine-5-carbonyl]amino]butanoyl]amino]-10,13-dioxo-9,12-diazatricyclo[13.3.1.12,6]icosa-1(18),2(20),3,5,15(19),16-hexaene-8-carboxamide], the MIC is 0.044 µM in assay [1] and 0.28 µM in assay [2].

As to `Cc1nc(-c2ccc(O)cc2)ncc1C(=O)N[C@@H](CCN)C(=O)N(C)[C@@H]1C(=O)N[C@@H](C)C(=O)N[C@H](C(=O)NCC#N)Cc2ccc(OCCN)c(c2)-c2cc1ccc2OCCN` (racemic) [Compound 524, rac-(8S,11S,14S)-3,18-bis(2-aminoethoxy)-N-(cyanomethyl)-11-methyl-14-[methyl-[rac-(2S)-4-amino-2-[[2-(4-hydroxyphenyl)-4-methyl-pyrimidine-5-carbonyl]amino]butanoyl]amino]-10,13-dioxo-9,12-diazatricyclo[13.3.1.12,6]icosa-1(18),2(20),3,5,15(19),16-hexaene-8-carboxamide], the results for the MIC in assay [1] and in assay [2] were 0.56 µM and 4.5 µM, respectively.

Take `Cc1cc(-c2ccc(CC(C)C)cc2)ncc1C(=O)N[C@@H](CCN)C(=O)N(C)[C@@H]1C(=O)N[C@@H](C)C(=O)N[C@H](C(=O)NCC#N)Cc2ccc(O)c(c2)-c2cc1ccc2OCCN` (racemic) [Compound 525, rac-(8S,11S,14S)-18-(2-aminoethoxy)-N-(cyanomethyl)-3-hydroxy-11-methyl-14-[methyl-[rac-(2S)-4-amino-2-[[6-(4-isobutylphenyl)-4-methyl-pyridine-3-carbonyl]amino]butanoyl]amino]-10,13-dioxo-9,12-diazatricyclo[13.3.1.12,6]icosa-1(18),2(20),3,5,15(19),16-hexaene-8-carboxamide]: the results for the MIC in assay [1] and in assay [2] were 0.053 µM and 0.56 µM, respectively.

As for `Cc1nc(-c2ccc(C(C)(C)C)cc2)ccc1C(=O)N[C@@H](CCN)C(=O)N(C)[C@@H]1C(=O)N[C@@H](C)C(=O)N[C@H](C(=O)NCC#N)Cc2ccc(O)c(c2)-c2cc1ccc2OCCN` (racemic) [Compound 526, rac-(8S,11S,14S)-18-(2-aminoethoxy)-N-(cyanomethyl)-3-hydroxy-11-methyl-14-[methyl-[rac-(2S)-4-amino-2-[[6-(4-tert-butylphenyl)-2-methyl-pyridine-3-carbonyl]amino]butanoyl]amino]-10,13-dioxo-9,12-diazatricyclo[13.3.1.12,6]icosa-1(18),2(20),3,5,15(19),16-hexaene-8-carboxamide], the values for the minimal inhibitory concentration (MIC) in assay [1] and in assay [2] were 0.047 µM and 0.33 µM, respectively.

`Cc1cc(-c2ccc(C(C)(C)C)cc2)nc(C)c1C(=O)N[C@@H](CCN)C(=O)N(C)[C@@H]1C(=O)N[C@@H](C)C(=O)N[C@H](C(=O)NCC#N)Cc2ccc(O)c(c2)-c2cc1ccc2OCCN` (racemic) [Compound 530, rac-(8S,11S,14S)-18-(2-aminoethoxy)-N-(cyanomethyl)-3-hydroxy-11-methyl-14-[methyl-[rac-(2S)-4-amino-2-[[6-(4-tert-butylphenyl)-2,4-dimethyl-pyridine-3-carbonyl]amino]butanoyl]amino]-10,13-dioxo-9,12-diazatricyclo[13.3.1.12,6]icosa-1(18),2(20),3,5,15(19),16-hexaene-8-carboxamide]: the values for the MIC in assay [1] and in assay [2] were 0.063 µM and 0.35 µM, respectively.

For `Cc1nc(-c2ccc3c(c2)CCC3(C)C)nc(C)c1C(=O)N[C@@H](CCN)C(=O)N(C)[C@@H]1C(=O)N[C@@H](C)C(=O)N[C@H](C(=O)NCC#N)Cc2ccc(O)c(c2)-c2cc1ccc2OCCN` (racemic) [Compound 531, rac-(8S,11S,14S)-18-(2-aminoethoxy)-N-(cyanomethyl)-3-hydroxy-11-methyl-14-[methyl-[rac-(2S)-4-amino-2-[[2-(1,1-dimethylindan-5-yl)-4,6-dimethyl-pyrimidine-5-carbonyl]amino]butanoyl]amino]-10,13-dioxo-9,12-diazatricyclo[13.3.1.12,6]icosa-1(18),2(20),3,5,15 8-carboxamide], the minimal inhibitory concentration (MIC) was 0.047 µM in assay [1] and 0.25 µM in assay [2].

As to `CCC(C)(C)c1ccc(-c2ncc(C(=O)N[C@@H](CCN)C(=O)N(C)[C@@H]3C(=O)N[C@@H](C)C(=O)N[C@H](C(=O)NCC#N)Cc4ccc(O)c(c4)-c4cc3ccc4OCCN)c(C)n2)cc1` (racemic) [Compound 535, rac-(8S,11S,14S)-18-(2-aminoethoxy)-N-(cyanomethyl)-3-hydroxy-11-methyl-14-[methyl-[rac-(2S)-4-amino-2-[[2-[4-(1,1-dimethylpropyl)phenyl]-4-methyl-pyrimidine-5-carbonyl]amino]butanoyl]amino]-10,13-dioxo-9,12-diazatricyclo[13.3.1.12,6]icosa-1(18),2(20),3,5,15(19),16-hexaene-8-carboxamide], the MIC was determined as 0.029 µM in assay [1] and 0.23 µM in assay [2].

As for `CCCCCOc1ccc(-c2nc(C)c(C(=O)N[C@@H](CCN)C(=O)N(C)[C@@H]3C(=O)N[C@@H](C)C(=O)N[C@H](C(=O)NCC#N)Cc4ccc(OCCN)c(c4)-c4cc3ccc4O)c(C)n2)cc1` (racemic) [Compound 536, rac-(8S,11S,14S)-3-(2-aminoethoxy)-N-(cyanomethyl)-18-hydroxy-11-methyl-14-[methyl-[rac-(2S)-4-amino-2-[[4,6-dimethyl-2-(4-pentoxyphenyl)pyrimidine-5-carbonyl]amino]butanoyl]amino]-10,13-dioxo-9,12-diazatricyclo[13.3.1.12,6]icosa-1(18),2(20),3,5,15(19),16-hexaene-8-carboxamide], the MIC in assay [1] worked out at 0.016 µM; in assay [2], 0.13 µM.

Turning to `Cc1nc(-c2ccc(OCCC(C)(C)C)cc2)nc(C)c1C(=O)N[C@@H](CCN)C(=O)N(C)[C@@H]1C(=O)N[C@@H](C)C(=O)N[C@H](C(=O)NCC#N)Cc2ccc(O)c(c2)-c2cc1ccc2OCCN` (racemic) [Compound 539, rac-(8S,11S,14S)-18-(2-aminoethoxy)-N-(cyanomethyl)-3-hydroxy-11-methyl-14-[methyl-[rac-(2S)-4-amino-2-[[2-[4-(3,3-dimethylbutoxy)phenyl]-4,6-dimethyl-pyrimidine-5-carbonyl]amino]butanoyl]amino]-10,13-dioxo-9,12-diazatricyclo[13.3.1.12,6]icosa-1(18),2(20),3,5,15(19),16-hexaene-8-carboxamide], the minimal inhibitory concentration (MIC) in assay [1] stood at 0.023 µM; in assay [2], 0.15 µM.

As to `Cc1nc(-c2ccc(O)cc2)nc(C)c1C(=O)N[C@@H](CCN)C(=O)N(C)[C@@H]1C(=O)N[C@@H](C)C(=O)N[C@H](C(=O)NCC#N)Cc2ccc(OCCN)c(c2)-c2cc1ccc2OCCN` (racemic) [Compound 542, rac-(8S,11S,14S)-3,18-bis(2-aminoethoxy)-N-(cyanomethyl)-11-methyl-14-[methyl-[rac-(2S)-4-amino-2-[[2-(4-hydroxyphenyl)-4,6-dimethyl-pyrimidine-5-carbonyl]amino]butanoyl]amino]-10,13-dioxo-9,12-diazatricyclo[13.3.1.12,6]icosa-1(18),2(20),3,5,15(19),16-hexaene-8-carboxamide], the MIC in assay [1] was 0.55 µM; in assay [2], 4.4 µM.

`Cc1nc(-c2ccc(C3(C)CC3)cc2)nc(C)c1C(=O)N[C@@H](CCN)C(=O)N(C)[C@@H]1C(=O)N[C@@H](C)C(=O)N[C@H](C(=O)NCC#N)Cc2ccc(O)c(c2)-c2cc1ccc2OCCN` (racemic) [Compound 543, rac-(8S,11S,14S)-18-(2-aminoethoxy)-N-(cyanomethyl)-3-hydroxy-11-methyl-14-[methyl-[rac-(2S)-4-amino-2-[[4,6-dimethyl-2-[4-(1-methylcyclopropyl)phenyl]pyrimidine-5-carbonyl]amino]butanoyl]amino]-10,13-dioxo-9,12-diazatricyclo[13.3.1.12,6]icosa-1(18),2(20),3,5,15(19),16-hexaene-8-carboxamide]: the MIC in assay [1] worked out at 0.063 µM; in assay [2], 0.35 µM.

For the compound `Cc1nc(-c2ccc(C(C)(C)C)cc2)nc(N)c1C(=O)N[C@@H](CCN)C(=O)N(C)[C@@H]1C(=O)N[C@@H](C)C(=O)N[C@H](C(=O)NCC#N)Cc2ccc(O)c(c2)-c2cc1ccc2OCCN` (racemic) [Compound 548, rac-(8S,11S,14S)-18-(2-aminoethoxy)-N-(cyanomethyl)-3-hydroxy-11-methyl-14-[methyl-[rac-(2S)-4-amino-2-[[4-amino-2-(4-tert-butylphenyl)-6-methyl-pyrimidine-5-carbonyl]amino]butanoyl]amino]-10,13-dioxo-9,12-diazatricyclo[13.3.1.12,6]icosa-1(18),2(20),3,5,15(19),16-hexaene-8-carboxamide], the minimum inhibitory concentration (MIC) in assay [1] was determined as 0.047 µM; in assay [2] it was 0.46 µM.
